Each block holds one molecule with its values, some of them ahead of it. Activity calls are given as the source filed them.
Legend:
Type in all cases: functional
[1] = target: Serine/threonine-protein kinase pim-1 (Homo sapiens, UniProt P11309)
[2] = target: Casein kinase II subunit alpha (Homo sapiens, UniProt P68400)
[3] = target: Serine/threonine-protein kinase pim-3 (Homo sapiens, UniProt Q86V86);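 further: value obtained as one member of a broad kinase panel profiling effort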
[4] = target: Serine/threonine-protein kinase BRSK1 (Homo sapiens, UniProt Q8TDC3);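 further: measured within a kinome-wide kinase panel, with the target listed as KIAA1811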
[5] = target: Tyrosine-protein kinase JAK2 (Homo sapiens, UniProt O60674);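 further: JAK2 tested as one member of a kinase panel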
Activin receptor type-1 = Activin receptor type-1 (Homo sapiens, UniProt Q04771); assay: Navigating the Kinome. Panel member name: ACVR1
[6] = target: High affinity nerve growth factor receptor (Homo sapiens, UniProt P04629);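 further: NTRK1 tested as one member of a kinome-wide profiling panel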
[7] = target: Mitogen-activated protein kinase 13 (Homo sapiens, UniProt O15264)
[8] = target: Dual specificity tyrosine-phosphorylation-regulated kinase 1B (Homo sapiens, UniProt Q9Y463); assay: Navigating the Kinome. Panel member name: DYRK1B
[9] = target: Platelet-derived growth factor receptor alpha (Homo sapiens, UniProt P16234); assay: Navigating the Kinome. Panel member name: PDGFRA
[10] = target: Leucine-rich repeat serine/threonine-protein kinase 2 (Homo sapiens, UniProt Q5S007);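 further: value from a broad kinome-wide panel profiling study in which LRRK2 was one of the kinases tested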
[11] = target: Leukocyte tyrosine kinase receptor (Homo sapiens, UniProt P29376); assay: Navigating the Kinome. Panel member name: LTK
[12] = target: Tyrosine-protein kinase FRK (Homo sapiens, UniProt P42685);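 further: FRK tested as one member of a kinome panel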
[13] = target: ALK tyrosine kinase receptor (Homo sapiens, UniProt Q9UM73);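 further: ALK tested as one member of a kinase panel screen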
[14] = target: Cyclin-dependent kinase 19 (Homo sapiens, UniProt Q9BWU1); assay: Navigating the Kinome. Panel member name: CDC2L6
Wee1-like protein kinase = Wee1-like protein kinase (Homo sapiens, UniProt P30291); assay: Navigating the Kinome. Panel member name: WEE1
[15] = target: Tyrosine-protein kinase SYK (Homo sapiens, UniProt P43405)
[16] = target: Mitogen-activated protein kinase kinase kinase kinase 4 (Homo sapiens, UniProt O95819)
[17] = target: Serine/threonine-protein kinase D2 (Homo sapiens, UniProt Q9BZL6);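 further: measured against PRKD2 as one member of a kinome-wide kinase profiling panel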
[18] = target: Serine/threonine-protein kinase D3 (Homo sapiens, UniProt O94806);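 further: determined within a kinase panel screen, with PRKCN as the panel member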
[19] = target: Rho-associated protein kinase 1 (Homo sapiens, UniProt Q13464);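 further: measured within a broad kinome-wide panel profiling many kinases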

Chain of Tyrosine-protein kinase JAK2 (O60674 whole entry): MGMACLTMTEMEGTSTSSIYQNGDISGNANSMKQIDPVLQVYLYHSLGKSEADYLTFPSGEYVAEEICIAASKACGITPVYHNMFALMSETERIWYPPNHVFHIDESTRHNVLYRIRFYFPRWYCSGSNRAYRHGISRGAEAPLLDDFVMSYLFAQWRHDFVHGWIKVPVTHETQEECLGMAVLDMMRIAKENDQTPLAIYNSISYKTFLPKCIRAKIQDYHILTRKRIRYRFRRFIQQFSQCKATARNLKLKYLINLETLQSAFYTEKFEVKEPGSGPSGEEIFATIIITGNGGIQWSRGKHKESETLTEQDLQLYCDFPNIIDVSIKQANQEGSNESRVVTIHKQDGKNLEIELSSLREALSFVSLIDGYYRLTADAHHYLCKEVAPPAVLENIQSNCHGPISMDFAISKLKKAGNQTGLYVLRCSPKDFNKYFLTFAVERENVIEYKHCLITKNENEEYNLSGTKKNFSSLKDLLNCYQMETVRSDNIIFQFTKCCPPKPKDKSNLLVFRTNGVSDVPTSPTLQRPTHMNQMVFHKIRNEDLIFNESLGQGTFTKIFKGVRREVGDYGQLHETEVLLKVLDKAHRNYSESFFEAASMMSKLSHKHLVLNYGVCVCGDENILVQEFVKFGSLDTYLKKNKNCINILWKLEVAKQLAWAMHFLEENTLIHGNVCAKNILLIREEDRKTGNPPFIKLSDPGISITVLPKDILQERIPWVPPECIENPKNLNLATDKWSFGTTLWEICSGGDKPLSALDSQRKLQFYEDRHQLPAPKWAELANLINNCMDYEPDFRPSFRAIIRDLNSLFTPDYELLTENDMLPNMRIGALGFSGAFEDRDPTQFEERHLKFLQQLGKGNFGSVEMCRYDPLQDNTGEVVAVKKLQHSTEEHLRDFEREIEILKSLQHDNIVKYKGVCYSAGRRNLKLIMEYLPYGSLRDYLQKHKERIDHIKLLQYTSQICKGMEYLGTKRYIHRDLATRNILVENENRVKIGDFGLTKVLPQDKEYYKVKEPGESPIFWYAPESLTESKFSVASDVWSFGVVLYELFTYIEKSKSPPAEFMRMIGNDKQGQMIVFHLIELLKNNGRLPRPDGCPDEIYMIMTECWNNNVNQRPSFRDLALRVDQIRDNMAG
Chain of ALK tyrosine kinase receptor (Q9UM73 whole entry): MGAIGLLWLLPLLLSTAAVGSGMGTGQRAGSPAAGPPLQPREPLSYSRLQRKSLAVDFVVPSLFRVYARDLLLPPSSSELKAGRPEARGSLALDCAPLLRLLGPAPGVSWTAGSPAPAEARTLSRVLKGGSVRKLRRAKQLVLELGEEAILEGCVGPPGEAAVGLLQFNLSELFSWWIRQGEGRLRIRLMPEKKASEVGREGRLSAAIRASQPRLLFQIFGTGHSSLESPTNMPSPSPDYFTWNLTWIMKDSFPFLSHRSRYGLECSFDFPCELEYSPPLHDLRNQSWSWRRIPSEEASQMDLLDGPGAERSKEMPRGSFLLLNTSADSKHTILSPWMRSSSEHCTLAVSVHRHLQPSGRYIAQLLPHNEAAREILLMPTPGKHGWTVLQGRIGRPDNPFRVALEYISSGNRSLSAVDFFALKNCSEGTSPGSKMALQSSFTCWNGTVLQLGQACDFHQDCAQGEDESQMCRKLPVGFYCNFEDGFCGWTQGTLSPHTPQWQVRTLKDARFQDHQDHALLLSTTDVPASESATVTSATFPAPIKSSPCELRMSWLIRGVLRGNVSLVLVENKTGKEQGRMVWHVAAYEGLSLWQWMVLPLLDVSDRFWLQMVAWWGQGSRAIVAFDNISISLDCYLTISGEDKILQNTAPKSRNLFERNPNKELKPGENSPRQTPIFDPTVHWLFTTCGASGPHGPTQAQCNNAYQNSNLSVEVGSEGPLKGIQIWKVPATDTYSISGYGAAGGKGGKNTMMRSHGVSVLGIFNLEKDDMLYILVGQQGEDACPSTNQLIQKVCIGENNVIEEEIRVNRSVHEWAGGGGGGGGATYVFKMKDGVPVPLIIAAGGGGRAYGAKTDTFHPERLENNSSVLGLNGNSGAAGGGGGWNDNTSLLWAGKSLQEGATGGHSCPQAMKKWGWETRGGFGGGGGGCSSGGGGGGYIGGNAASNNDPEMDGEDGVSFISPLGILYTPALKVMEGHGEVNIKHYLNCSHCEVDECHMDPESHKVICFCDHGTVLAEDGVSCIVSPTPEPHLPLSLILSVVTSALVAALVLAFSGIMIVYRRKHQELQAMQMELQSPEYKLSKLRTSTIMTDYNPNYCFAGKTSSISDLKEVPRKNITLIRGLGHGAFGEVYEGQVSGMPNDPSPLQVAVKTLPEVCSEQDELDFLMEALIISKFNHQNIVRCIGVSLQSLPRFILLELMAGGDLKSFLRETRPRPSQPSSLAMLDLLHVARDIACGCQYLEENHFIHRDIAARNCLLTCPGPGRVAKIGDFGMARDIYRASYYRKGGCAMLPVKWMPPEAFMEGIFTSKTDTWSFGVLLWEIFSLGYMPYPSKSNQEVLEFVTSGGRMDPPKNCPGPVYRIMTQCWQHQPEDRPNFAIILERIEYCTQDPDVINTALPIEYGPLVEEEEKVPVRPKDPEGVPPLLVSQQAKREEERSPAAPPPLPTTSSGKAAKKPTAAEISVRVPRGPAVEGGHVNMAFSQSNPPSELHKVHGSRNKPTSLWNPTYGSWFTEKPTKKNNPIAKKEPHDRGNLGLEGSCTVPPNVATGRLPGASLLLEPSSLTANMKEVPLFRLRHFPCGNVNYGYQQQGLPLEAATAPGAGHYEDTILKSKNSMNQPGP
Chain of High affinity nerve growth factor receptor (P04629 whole entry): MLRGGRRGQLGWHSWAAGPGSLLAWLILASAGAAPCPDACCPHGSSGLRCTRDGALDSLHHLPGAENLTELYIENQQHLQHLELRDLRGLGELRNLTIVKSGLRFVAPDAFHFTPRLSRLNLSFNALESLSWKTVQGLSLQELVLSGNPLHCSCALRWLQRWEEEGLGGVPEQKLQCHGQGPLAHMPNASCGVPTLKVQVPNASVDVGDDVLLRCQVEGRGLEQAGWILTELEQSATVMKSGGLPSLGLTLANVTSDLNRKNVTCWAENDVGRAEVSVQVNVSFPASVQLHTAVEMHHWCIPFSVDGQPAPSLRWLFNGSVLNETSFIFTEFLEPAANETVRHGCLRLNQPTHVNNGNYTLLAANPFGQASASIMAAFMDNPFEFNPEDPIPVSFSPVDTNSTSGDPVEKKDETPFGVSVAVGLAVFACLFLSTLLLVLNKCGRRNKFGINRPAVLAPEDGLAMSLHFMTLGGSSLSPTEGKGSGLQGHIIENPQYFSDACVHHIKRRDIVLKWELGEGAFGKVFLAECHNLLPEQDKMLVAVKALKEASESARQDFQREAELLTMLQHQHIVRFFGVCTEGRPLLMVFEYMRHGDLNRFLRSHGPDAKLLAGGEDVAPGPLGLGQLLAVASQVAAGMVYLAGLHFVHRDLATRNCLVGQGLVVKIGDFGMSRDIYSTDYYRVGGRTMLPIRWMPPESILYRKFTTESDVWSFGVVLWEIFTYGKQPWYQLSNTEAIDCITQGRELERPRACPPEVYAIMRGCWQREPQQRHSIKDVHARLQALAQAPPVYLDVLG
Chain of Platelet-derived growth factor receptor alpha (P16234 whole entry): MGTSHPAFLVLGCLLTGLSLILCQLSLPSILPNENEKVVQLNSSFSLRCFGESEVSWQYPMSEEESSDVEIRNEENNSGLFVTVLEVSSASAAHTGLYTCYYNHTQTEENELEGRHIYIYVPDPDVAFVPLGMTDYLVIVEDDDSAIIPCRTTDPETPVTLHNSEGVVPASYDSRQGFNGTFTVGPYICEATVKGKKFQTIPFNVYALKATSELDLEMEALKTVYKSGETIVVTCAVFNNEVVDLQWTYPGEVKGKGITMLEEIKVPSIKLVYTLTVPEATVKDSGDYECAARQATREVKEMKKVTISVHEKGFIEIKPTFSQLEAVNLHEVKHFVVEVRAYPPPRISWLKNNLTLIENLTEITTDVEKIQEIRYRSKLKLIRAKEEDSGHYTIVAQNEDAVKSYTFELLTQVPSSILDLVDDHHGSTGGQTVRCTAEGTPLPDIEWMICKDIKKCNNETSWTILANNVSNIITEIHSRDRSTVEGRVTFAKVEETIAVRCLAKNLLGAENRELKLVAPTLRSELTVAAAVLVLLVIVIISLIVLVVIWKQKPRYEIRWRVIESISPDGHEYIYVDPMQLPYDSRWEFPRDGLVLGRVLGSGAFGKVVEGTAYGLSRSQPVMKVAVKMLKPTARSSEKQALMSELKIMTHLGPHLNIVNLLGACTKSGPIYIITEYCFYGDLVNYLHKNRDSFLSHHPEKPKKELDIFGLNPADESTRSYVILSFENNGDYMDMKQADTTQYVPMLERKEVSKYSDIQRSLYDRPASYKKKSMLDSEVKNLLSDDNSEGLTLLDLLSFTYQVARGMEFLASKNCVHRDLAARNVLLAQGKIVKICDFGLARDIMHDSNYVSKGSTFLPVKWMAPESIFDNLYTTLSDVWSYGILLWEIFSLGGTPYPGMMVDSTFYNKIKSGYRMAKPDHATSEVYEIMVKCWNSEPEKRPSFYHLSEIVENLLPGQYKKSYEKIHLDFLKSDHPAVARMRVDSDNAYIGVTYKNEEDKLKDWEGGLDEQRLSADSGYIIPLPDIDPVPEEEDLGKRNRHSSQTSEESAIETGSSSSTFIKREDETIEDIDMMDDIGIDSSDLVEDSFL

SMILES: O=C1ON=C(c2ccc(Br)cc2)C1=Cc1ccc2c(c1)OCO2
Ki [1]: 2 µM (active)
Ki [2]: 1.58 µM (active)
Ki [3]: 7.94 µM (active)
Ki [4]: 10 µM (active)

SMILES: COc1cccc(C(C)NC(=O)c2ccc(-c3ccncc3)cc2)c1 (stereo not drawn)
Ki [5]: > 2.51 µM (inactive)
Ki (Activin receptor type-1): > 3.98 µM (inactive)
Ki [6]: > 2.51 µM (inactive)
Ki [7]: > 7.94 µM (inactive)
Ki [8]: > 2.51 µM (inactive)
Ki [9]: > 2.51 µM (inactive)
Ki [10]: > 2.51 µM (inactive)
Ki [11]: > 2.51 µM (inactive)
Ki [12]: > 2.51 µM (inactive)

SMILES: Cc1ccc(NC(=O)Nc2ccc(-c3csc4c(-c5cnn(CC(=O)N(C)C)c5)cnc(N)c34)cc2)cc1
Ki [13]: 0.158 µM (active)
Ki [14]: > 100 µM (inactive)

SMILES: Cc1cnc(Nc2ccc(N3CCN(C)CC3)cc2)nc1Nc1cccc(S(=O)(=O)NC(C)(C)C)c1
Ki [13]: 0.501 µM (active)
Ki (Wee1-like protein kinase): 0.126 µM (active)

Further lines, results first:

Ki [5]: 0.0398 µM (active)
Ki [15]: 0.0794 µM (active)
Ki [16]: 0.0794 µM (active)
SMILES: CCN(CC)CCOc1ccc(Nc2ncc3cc(-c4c(Cl)cccc4Cl)c(=O)n(C)c3n2)cc1 [PD-0166285]

Ki [17]: 5.01 µM (active)
Ki [18]: 2.51 µM (active)
Ki [19]: 2.51 µM (active)
SMILES: NC(=O)c1ccc(N(C(N)=O)c2c(F)cccc2F)nc1-c1ccc(F)cc1F [VX-702]

Source: ChEMBL document CHEMBL1201862, “PubChem BioAssay data set” (2004)
